Reference: US6900234B1, “Synergistic therapeutic compositions and methods” (Pfizer, Inc., priority 1990, dated 2005)

Columns and labels:
Male Hartley guinea pigs = test: Mean arterial pressure lowering (AOC-MAP) in conscious sodium-depleted guinea pigs after i.v. dosing; assay type: in vivo, guinea pig; parameters: unit not given here
Description: Male Hartley guinea pigs weighing between 250 and 300 g were obtained from Charles River Laboratories, Lakeview, N.J. The guinea pigs were allowed to acclimate to their environment for at least two weeks. Then, they were placed on a low sodium diet (Purina Modified Guinea Pig Chow, no sodium added) for 14 days and were given injections of furosemide (Lasix® 2 mg/kg, i.m.) on three non-consecutive days. At least 24 hours prior to experimentation, the animals were anesthetized with xylazine (Rompun®, 10 mg/kg, s.c.) and ketamine (Vetalar®, 80 mg/kg, i.m.) and, using aseptic technique, cannulae (PE-50) were implanted into the aorta via the right carotid artery for direct measurement of mean arterial pressure (MAP). Cannulae (PE-50) were also placed into the left jugular vein for intravenous compound administration. Both catheters were exteriorized at the intrascapular region of the animal's back and flushed with a heparinized dextrose solution. To prevent the formation of clots, each cannula was filled with heparin at a concentration of 1000 units/ml. After surgery, an antibacterial, trimethoprim/sulfamethoxazole (Di-Trim®, 30 mg/kg, s.c.), was given to the animals. The animals were allowed to recover with water and no-sodium chow administered ad libitum. On the day of the experiment, each guinea pig was given an additional injection of furosemide (6 mg/kg, i.m.) to accelerate sodium loss and was placed in,a sound-proof, ventilated box with one-way glass for observation. Mean arterial pressure was monitored with a Statham 23DB strain gauge pressure transducer previously calibrated using a mercury manometer. The arterial pressure waveform and derived heart rate were continuously recorded on a Grass Model 7D osciliograph. Arterial pressure waveform samples were obtained approximately every 20 seconds using an IBM PS/2 model 30 computer equipped with a custom algorithm designed to calculate mean arterial pressure from the integrated waveform. Values were obtained for a period of at least one hour prior to and 2 hours (usually 4 hours) after dosing. The test compounds were infused intravenously followed by a 250 μl flush with heparinized dextrose solution.
Dose response curves for the renin inhibitor (RI) (0.3 to 3.0 mg/kg, i.v.) and captopril (0.03 to 1.0 mg/kg, i.v.) were obtained (n=4 to 8) in order to quantitate baseline responses to each drug. In experiments where the renin inhibitor and captopril were co-administered, the renin inhibitor was given first immediately followed by captopril. Doses of renin inhibitor and angiotensin converting enzyme inhibitor, when given together, were chosen on the basis of causing submaximal hypotensive effects. Therefore, the contributory effect of each drug could be quantitated by integration and compared to the expected effect to determine whether additive or synergistic responses had occurred.
Employing the procedure described above, the changes in mean arterial pressure (ΔMAP) for the renin inhibitor (RI), the ACE inhibitor (captopril) and the renin inhibitor (RI), plus the ACE inhibitor (captopril) were obtained for various doses and are shown in Table I, below. The AOC-MAP is the area over the dose response curve for each dose calculated using the trapezoidal method.
The data in Table I were obtained by averaging the Δ MAP of all animals for each dose prior to calculating the AOC-MAP. When the data contained in Table I was reviewed for the purpose of calculating the AOC-MAP by averaging the area over the dose response curve for each animal per dose, it was discovered that the AOC-MAP for 0.5 mg/kg RI plus 0.05 mg/kg captopril inadvertently reflected the data based on only three of the six subject test animals. Shown below in Table II are the AOC-MAP data for the experiments reported in Table I, which data is now the result of determining the area over the dose response curve for each animal per dose and averaging the AOC-MAP, as well as determining the standard deviation. […]

[1] = reported in Oldham et al., J. Cardiovasc. Pharmacol. 6: 672-677 (1984); cited from earlier work
[2] = Table I, 1.0 mg/kg i.v., ΔMAP of all animals averaged per dose before calculating the area
[3] = Table II, 1.0 mg/kg i.v., average of the area for each animal per dose
[4] = Table III, 0.30 mg/kg i.v., average of the area for each animal per dose
[5] = Table III, 1.0 mg/kg i.v., average of the area for each animal per dose

SMILES | AOC-MAP (Male Hartley guinea pigs; Table I, 0.03 mg/kg i.v., ΔMAP of all animals averaged per dose before calculating the area) | AOC-MAP (Male Hartley guinea pigs; Table I, 0.10 mg/kg i.v., ΔMAP of all animals averaged per dose before calculating the area) | AOC-MAP (Male Hartley guinea pigs; Table I, 0.30 mg/kg i.v., ΔMAP of all animals averaged per dose before calculating the area) | AOC-MAP (Male Hartley guinea pigs; [2]) | AOC-MAP (Male Hartley guinea pigs; Table II, 0.03 mg/kg i.v., average of the area for each animal per dose) | AOC-MAP (Male Hartley guinea pigs; Table II, 0.10 mg/kg i.v., average of the area for each animal per dose) | AOC-MAP (Male Hartley guinea pigs; Table II, 0.30 mg/kg i.v., average of the area for each animal per dose) | AOC-MAP (Male Hartley guinea pigs; [3]) | AOC-MAP (Male Hartley guinea pigs; Table III, 0.03 mg/kg i.v., average of the area for each animal per dose) | AOC-MAP (Male Hartley guinea pigs; Table III, 0.10 mg/kg i.v., average of the area for each animal per dose) | AOC-MAP (Male Hartley guinea pigs; [4]) | AOC-MAP (Male Hartley guinea pigs; [5]) | hypotensive effect of captopril injected during H77 infusion [1] | AOC-MAP (Male Hartley guinea pigs; Table III, 3.0 mg/kg i.v., average of the area for each animal per dose) | AOC-MAP (Male Hartley guinea pigs; Table I, 0.3 mg/kg i.v., ΔMAP of all animals averaged per dose before calculating the area (trapezoidal)) | AOC-MAP (Male Hartley guinea pigs; Table I, 3.0 mg/kg i.v., ΔMAP of all animals averaged per dose before calculating the area) | AOC-MAP (Male Hartley guinea pigs; Table II, 0.3 mg/kg i.v., average of the area for each animal per dose) | AOC-MAP (Male Hartley guinea pigs; Table II, 3.0 mg/kg i.v., average of the area for each animal per dose)
C[C@H](CS)C(=O)N1CCC[C@H]1C(=O)O [captopril] | −99 | −289 | −1263 | −3272 | −96 | −283 | −1036 | −3272 | −96 | −269 | −826 | −3272 | small additional hypotensive effect | – | – | – | – | –
CCCCc1nc(Cl)c(CO)n1Cc1ccc(-c2ccccc2-c2nn[nH]n2)cc1 [Dup 753] | – | – | – | – | – | – | – | – | – | – | −125 | −549 | – | −1575 | – | – | – | –
CSCC(NC(=O)C(Cc1ccccc1)NC(=O)N1CCOCC1)C(=O)NC(CC1CCCCC1)C(O)C(=O)OC(C)C (stereo not drawn) [RI, [alpha-R[alpha-R*,beta-S*(S*,S*)]-alpha-hydroxy-beta-[[2-[[2-(4-morpholin-1-carboxamido)-1-oxo-3-phenylpropyl]amino[-3-methylthio-1-oxo-propyl]amino]-cyclohexanebutanoic acid, isopropyl ester] | – | – | – | −496 | – | – | – | −568 | – | – | – | – | – | – | −256 | −1829 | −310 | −1990
